From patent US20080293691A1, “Treatment Method” (SMITHKLINE BEECHAM CORPORATION, priority 2005, published 2008)

Experiments:
[1] = tested on: choroidal neovascularization (CNV); test: Prevention model for CNV (treatment begun before laser-induced retinal injury in mice); format: in vivo; details: oral twice daily from one day before retinal burning, 100 mg/kg Example 1, 45 mg/kg Example 3, or both, read fourteen days after burning, FIG. 2
Method: See the Examples section for additional information.
(§1) Mice were anesthetized and the pupils were dilated. Burns of krypton laser photocoagulation were delivered to the retina. Administration of the compound described in Example 1 was initiated seven days after the laser-induced injury. Oral doses of either the vehicle alone or vehicle containing the compound of formula (I) (designated as VEGF R in FIG. 1) at a dose or 4 mg/kg, 20 mg/kg, or 100 mg/kg were administered twice daily for seven days. After seven day of treatment, the mice were perfused with fluorescein-labeled dextran, and the area of choroidal neovascularization was quantitated.
In this experiment, the compound described in Example 1 (Designated as VEGF R in FIG. 2), Example 3 (designated as vitronectin in FIG. 2), or a combination of the compounds described in Example 1 and Example 3 (designated as “both” in FIG. 2) were administered to each mouse beginning one day before retinal burning was performed according to the methods described in Example 4. The compounds were administered orally twice daily at a dosage of 100 mg/kg for the compound of Example 1 or 45 mg/kg for the compound of Example 3. Fourteen days after the retinal burning, the CNV area was quantitated as described above.

[2] = tested on: choroidal neovascularization (CNV); test: Regression model for CNV (laser-induced choroidal neovascularization in mice); format: in vivo; details: oral 4, 20 or 100 mg/kg twice daily for seven days, started seven days after laser-induced injury, compared with vehicle/untreated
From the text: In this regression model, CNV was induced in mice by laser burns on the posterior pole of the retina. Seven days after the laser-induced injury, the mice began a regime in which they were given either vehicle alone or 5-[[4-[(2,3-Dimethyl-2H-indazol-6-yl)methylamino]-2-pyrimidinyl]amino]-2-methylbenzenesulfonamide at the indicated doses. Seven days after this regime was initiated, the size of the CNV lesions was quantitated. See the Examples section for additional information.
as §1

| SMILES | CNV area (size of choroidal neovascular lesions) [1] | area of choroidal neovascularization (size of CNV lesions) ([2]; FIG. 1) | area of choroidal neovascularization (size of CNV lesions) ([2]; FIG. 1, listed as Pazopanib) |
| --- | --- | --- | --- |
| O=C(O)C[C@@H]1Cc2ccc(OCCCNc3ccccn3)cc2CN(CC(F)(F)F)C1=O [Example 3, (S)-3-oxo-8-[3-(pyridin-2-ylamino)-1-propyloxy]-2-(2,2,2-trifluoroethyl)-2,3,4,5-tetrahydro-1H-2-benzazepine-4-acetic acid] | a decrease in size of the resulting choroidal neovascular lesions |  |  |
| Cc1ccc(Nc2nccc(N(C)c3ccc4c(C)n(C)nc4c3)n2)cc1S(N)(=O)=O [pazopanib, 5-({4-[(2,3-dimethyl-2H-indazol-6-yl)(methyl)amino]pyrimidin-2-yl}amino)-2-methylbenzenesulfonamide] | a decrease in size of the resulting choroidal neovascular lesions | a decrease in the size of the resulting choroidal neovascular lesions | decreased the CNV area in a dose-specific manner |
